Some test systems named below: RXF 393 renal; EKVX NSCLC; SK-MEL-28 melanoma; PC-3 prostate; HS 578T breast; UACC-257 melanoma; NCI-H23 lung; RPMI-8226 leukemia; NCI-H522 lung; OVCAR-4 ovarian; HOP-62 NSCLC.
Common to all, as to experiment: DTP human tumour cell line panel, 48 h

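48-hour exposure; five concentrations; linearly interpolated endpoints. The concentration for full growth arrest is given as TGI.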 Where only a bound is given, the exact number is not on record here.

The TGI is the concentration at which net growth stops. A higher TGI goes with lower sensitivity of the cells. For `CN(C)Cc1cc(Cl)c(O)c(CN(C)C)c1`, the TGI in the assay with RXF 393 renal, in the assay on EKVX NSCLC, with SK-MEL-28 melanoma, with PC-3 prostate, in the assay on HS 578T breast and in the assay with UACC-257 melanoma was greater than 100 µM in each case. In addition, the total growth inhibition concentration (TGI) with NCI-H23 lung, in the assay with RPMI-8226 leukemia, with NCI-H522 lung, in the assay on OVCAR-4 ovarian and in the assay on HOP-62 NSCLC was greater than 100 µM throughout.

For the compound `Fc1cc(C2=Nn3c(COc4ccccc4Cl)nnc3S/C2=C\c2ccc(Cl)cc2)c(Cl)cc1Cl`, the TGI is 28 µM in the assay with RXF 393 renal; greater than 100 µM with EKVX NSCLC; 13.4 µM in the assay on SK-MEL-28 melanoma; 68.9 µM with PC-3 prostate; 36.4 µM in the assay with HS 578T breast; greater than 100 µM in the assay with UACC-257 melanoma. In addition, the TGI in the assay with NCI-H23 lung was 6.33 µM; in the assay with RPMI-8226 leukemia, greater than 100 µM; in the assay on NCI-H522 lung it was 22.6 µM; in the assay on OVCAR-4 ovarian, 35.9 µM; with HOP-62 NSCLC it was greater than 100 µM.

Take `NS(=O)(=O)c1ccc(NC(=O)N/N=C/c2ccccc2[N+](=O)[O-])cc1`: the TGI in the assay with RXF 393 renal, with EKVX NSCLC, with SK-MEL-28 melanoma, with PC-3 prostate, in the assay on HS 578T breast and with UACC-257 melanoma was greater than 100 µM each time. For the same compound, the TGI with NCI-H23 lung, in the assay with RPMI-8226 leukemia, in the assay with NCI-H522 lung, in the assay with OVCAR-4 ovarian and in the assay on HOP-62 NSCLC was greater than 100 µM in each case.

On to `O=C(OC1=CCN(Br)C1=O)C1=C(O)C(=O)N(Br)C1`, for which the TGI in the assay with RXF 393 renal is 38.5 µM; in the assay on EKVX NSCLC, 77.8 µM; with SK-MEL-28 melanoma, 41.4 µM; in the assay with PC-3 prostate, greater than 100 µM; with HS 578T breast, greater than 100 µM; in the assay with UACC-257 melanoma, 87.6 µM. Besides, the TGI with NCI-H23 lung is greater than 100 µM; in the assay on RPMI-8226 leukemia, greater than 100 µM; with NCI-H522 lung, 31.4 µM; with OVCAR-4 ovarian, greater than 100 µM; in the assay on HOP-62 NSCLC, 51.7 µM.

Regarding `CO/C=C(/C(=O)OC)[C@@H]1C[C@@H]1c1ccc2ccccc2c1`, the concentration for total growth inhibition (TGI) was greater than 100 µM in the assay on RXF 393 renal; 60 µM with EKVX NSCLC; 81.4 µM with SK-MEL-28 melanoma; greater than 100 µM in the assay with PC-3 prostate; greater than 100 µM in the assay with HS 578T breast; 71.9 µM in the assay on UACC-257 melanoma. The TGI in the assay with NCI-H23 lung is greater than 100 µM; in the assay on RPMI-8226 leukemia it was 41.9 µM; with NCI-H522 lung, 28.5 µM; with OVCAR-4 ovarian, 77.1 µM; in the assay with HOP-62 NSCLC, greater than 100 µM.

Regarding `CCn1c(SCC(=O)N/N=C2\SCC(=O)N2c2ccc(C)cc2)nc2ccccc2c1=O`, the TGI in the assay with RXF 393 renal came out at 53.8 µM; in the assay on EKVX NSCLC, 46.2 µM; with SK-MEL-28 melanoma, 48.7 µM; with PC-3 prostate it was 54.2 µM; in the assay on HS 578T breast it was 41.7 µM; in the assay on UACC-257 melanoma, 35.3 µM. The TGI with NCI-H23 lung is 42.2 µM; with RPMI-8226 leukemia, 52.7 µM; in the assay on NCI-H522 lung it was 62.1 µM; in the assay on OVCAR-4 ovarian, 48.2 µM; in the assay with HOP-62 NSCLC, 50.7 µM.

For the compound `C#CC1(O)CCC2[C@@H]3CCc4cc(Oc5nc(F)nc(-c6c(C)c(C(=O)OCC)n7ccccc67)n5)ccc4C3CC[C@@]21C` (some centres not stated), the TGI in the assay with RXF 393 renal, with EKVX NSCLC, in the assay on SK-MEL-28 melanoma, with PC-3 prostate, in the assay on HS 578T breast and in the assay with UACC-257 melanoma was greater than 100 µM each time. Besides, the TGI in the assay with NCI-H23 lung, in the assay with RPMI-8226 leukemia, with NCI-H522 lung, with OVCAR-4 ovarian and in the assay with HOP-62 NSCLC was greater than 100 µM each time.

For the compound `COc1ccc(C2CC(c3c(O)ccc4ccccc34)=NN2)cc1OC` (configuration not stated), the TGI was 24.6 µM with RXF 393 renal; 22.1 µM with EKVX NSCLC; greater than 100 µM with PC-3 prostate; 7.43 µM in the assay on HS 578T breast; 20.4 µM in the assay with UACC-257 melanoma; 13.8 µM in the assay on NCI-H23 lung. For the same compound, the TGI was determined as 65 µM with RPMI-8226 leukemia, 8.58 µM in the assay on NCI-H522 lung, 20.8 µM in the assay on OVCAR-4 ovarian and 17.5 µM in the assay with HOP-62 NSCLC.

For `COC(=O)Nc1nc2ccc(NS(=O)(=O)c3cccs3)cc2[nH]1`, the TGI with RXF 393 renal was 85.8 µM; in the assay on EKVX NSCLC, 73.7 µM; with SK-MEL-28 melanoma, greater than 100 µM; in the assay on PC-3 prostate, greater than 100 µM; in the assay with HS 578T breast, 36.4 µM; with NCI-H23 lung it was greater than 100 µM. Moreover, the TGI was greater than 100 µM in the assay on RPMI-8226 leukemia, 29.9 µM in the assay on NCI-H522 lung, greater than 100 µM in the assay with OVCAR-4 ovarian and 82.4 µM in the assay on HOP-62 NSCLC.

Turning to `CCCCCCN(CCCCCC)CCC(=O)c1ccc2cc(Br)c3ccccc3c2c1`, the TGI with RXF 393 renal is 64.3 µM; with EKVX NSCLC, greater than 100 µM; with SK-MEL-28 melanoma it was greater than 100 µM; in the assay on PC-3 prostate, greater than 100 µM; in the assay on HS 578T breast, greater than 100 µM; in the assay on UACC-257 melanoma it was greater than 100 µM. Also, the TGI with NCI-H23 lung is greater than 100 µM; in the assay on RPMI-8226 leukemia, greater than 100 µM; in the assay with NCI-H522 lung, 87.1 µM; with HOP-62 NSCLC, greater than 100 µM.

With `O=c1onc2n1-c1ccc(Cl)cc1C(=S)N1CSCC21` (configuration not stated), the TGI in the assay with RXF 393 renal was 89.2 µM; in the assay on EKVX NSCLC, greater than 100 µM; with SK-MEL-28 melanoma, greater than 100 µM; with PC-3 prostate it was greater than 100 µM; with HS 578T breast, 53.9 µM; in the assay with UACC-257 melanoma it was greater than 100 µM. The TGI was greater than 100 µM in the assay with RPMI-8226 leukemia, 62.9 µM in the assay on NCI-H522 lung, greater than 100 µM with OVCAR-4 ovarian and greater than 100 µM in the assay with HOP-62 NSCLC.

In the case of `COc1cc(C2C=C(c3ccccc3)Oc3cc4c(cc32)OCO4)cc(OC)c1OC` (configuration not stated), the total growth inhibition concentration (TGI) in the assay on RXF 393 renal, in the assay on EKVX NSCLC, with SK-MEL-28 melanoma, in the assay with PC-3 prostate, with HS 578T breast and with UACC-257 melanoma was greater than 100 µM each time. In addition, the TGI is greater than 27 µM in the assay with NCI-H23 lung, greater than 100 µM in the assay on RPMI-8226 leukemia, greater than 100 µM in the assay on OVCAR-4 ovarian and greater than 100 µM in the assay with HOP-62 NSCLC.

`Cc1cc(N(CCC#N)CCC#N)ccc1/C(N=Nc1ccc([N+](=O)[O-])cc1)=N\NC(=O)c1cc(Cl)ccc1O`: the TGI is greater than 100 µM in the assay on RXF 393 renal; 82.4 µM in the assay on EKVX NSCLC; greater than 100 µM in the assay on PC-3 prostate; 91.7 µM in the assay on HS 578T breast; greater than 100 µM in the assay with UACC-257 melanoma; 39.1 µM with NCI-H23 lung. The TGI with RPMI-8226 leukemia was greater than 100 µM; in the assay on NCI-H522 lung, 23.9 µM; in the assay with OVCAR-4 ovarian it was greater than 100 µM; with HOP-62 NSCLC, greater than 100 µM.

(Values after PubChem BioAssay (NCI).)
